Measured values: patent US20160160294A1, “METHODS AND MATERIALS FOR PREDICTING RESPONSE TO NIRAPARIB” (Tesaro, priority 2014, published 2016)
Where two headings read alike, the source gives them in different places.

Assays:
[1] = test system: ovarian cancer PDX models
Method: A series of ovarian tumors were implanted orthotopically in mice and the resulting patient-derived xenograft (PDX) models were evaluated for niraparib sensitivity by ultrasound imaging. The BRCA status (mutated “BRCAmut” or wild-type “BRCAwt”) of each PDX model was evaluated, with BRCA1/2 variants identified by the test were classified in accordance with the recommendations of the American College of Medical Genetics and Genomics (ACMG) for standards in the interpretation and reporting of sequence variations. HRD scores were also determined for the PDX models as described in Examples 1 & 2.

[2] = test system: basal breast cancer (BBC) patient-derived xenograft (PDX) models; conditions: subset of BBC PDX models; cited from earlier work
[3] = test system: TNBC patient-derived xenograft (PDX) models
Method: Mice were assigned to homogeneous groups of 10 animals when tumors reached a size of 70-200 mm^3, and were treated with niraparib at 50 mg/kg or 75 mg/kg once a day for 28 days. The compound was delivered by gavage (p.o) under a volume of […] for a 25-g mouse. Tumor volume was evaluated by measuring biweekly tumor diameters with a caliper.

## NC(=O)c1cccc2cn(-c3ccc([C@@H]4CCCNC4)cc3)nc12 [niraparib]
[1]; All models (8/26)
  Response rate: 31% (8/26)
[1]; BRCA1/2 deficient models (4/8)
  Response rate: 50% (4/8)
[1]; HRD+ BRCA wt models (4/8)
  Response rate: 50% (4/8)
[2]
  response of BBC PDX models to single agent treatment: responded robustly
[3]; T330 model (FIG. 8)
  effect on tumor volume: regression of tumor volume
[3]; among 20 tested, 50 mg/kg or 75 mg/kg once a day for 28 days, p.o.
  number of TNBC PDX models whose growth was significantly inhibited: 6
[3]; subset of TNBC PDX models
  activity in TNBC PDX models: robust activity
